Test results from PMC6689975, “Novel Cell Wall Antifungals Reveal a Special Synergistic Activity in pbr1 Mutants Resistant to the Glucan Synthesis Antifungals Papulacandins and Echinocandins” (Frontiers in Microbiology, 2019).
Values after ≈ are worked out from the molar mass of the structure shown.

Tests used:
Test in all cases: microbe, parasite or virus in culture
[1] = tested on: T1, Schizosaccharomyces pombe S. p.^a (wild-type 972 h-); parameters: species or system yeast; tube dilution MIC in YEPD (± 1.2 M sorbitol), complete growth inhibition by turbidity; details: 48 h, YEPD + 1.2 M sorbitol
T1 construct: 972 h-
Experimental: (§1) Standard YEPD (Yeast Extract, Peptone, Dextrose) ([Sherman, 1990]), YEPD+S (YEPD with 1.2M sorbitol), YES (Yeast Extract, Dextrose and Supplements of Adenine, Histidine, Leucine, Uracil and Lysine) ([Alfa et al., 1993]) and YES+S (YES with 1.2 M sorbitol) ([Ribas et al., 1991]; [Ishiguro et al., 1997]), media were used for determination of MIC values of the tested compounds. A stock solution of 10 mg/ml of each tested compounds was prepared in DMSO and serial dilutions in DMSO were prepared. The final concentration of DMSO was 2% in the YEPD medium. […] The serial dilutions of compounds were dispensed into test tubes with 1 ml of YEPD or YEPD+S to make final concentrations of 200, 100, 50, 25, 12.5, 6.26, 3.125, 1.6, 0.8 and 0.4 μg/ml. The tested yeast strains were previously grown in YEPD, YEPD+S, YES or YES+S agar plates at 30°C for 48 h. For inoculation of YEPD or YEPD+S macro test tubes a suspension of tested fungus was produced with 10^5 cfu/ml (cfu - colony forming unit). 10 μl of suspension was used for inoculation of each tube. After 48 h incubation at 30°C the tubes were checked. The MIC value is the lowest concentration of the tested compound that could inhibit the fungal growth and the medium remained clear. From each tube 10 μl culture was plated on YEPD agar medium to check the contamination. The MIC tests were carried out in three parallels. Micro-culture assays of large numbers of samples were analyzed as described) ([Martins et al., 2011]). Essentially early log-phase cells were grown in YEPD, YEPD+S, YES or YES+S (1.2 M sorbitol) medium at 30°C, and diluted to cell density of 4 X 10^6 cells/ml in YEPD, YEPD+S, YES or YES+S medium and aliquots of 100 μl were dispensed into each small test tube (3 ml test tube size). Then, another 100 μl of YEPD, YEPD+S, YES or YES+S with the corresponding dilution of each compound at 2X concentration (4% DMSO) was added. The final volume was 200 μl, with the cells diluted to of 2 X 10^6 cells/ml and each compound diluted to 1X final concentration, containing increasing concentrations of antifungal (0, 1, 2, 5, 10, 20, 50, 100 and 200 μg/ml) or an equivalent volume of solvent (2% DMSO). The cells were grown at 30°C in an orbital roller and turbidity was analyzed after 24 and 48 h of incubation. The MIC was determined as the minimal concentration of tested compound that produced complete cell growth inhibition and kept the medium clear. The MIC values were calculated from at least three independent experiments.

[2] = tested on: Candida albicans C. a.^h (Table 4); parameters: species or system yeast; tube dilution MIC in YEPD (± 1.2 M sorbitol), complete growth inhibition by turbidity; details: 48 h, YEPD + 1.2 M sorbitol
Experimental: as §1

[3] = tested on: T2, Saccharomyces cerevisiae S. c.^d (wild-type CVX12-3A); parameters: species or system yeast; tube dilution MIC in YEPD (± 1.2 M sorbitol), complete growth inhibition by turbidity; details: 48 h, YEPD + 1.2 M sorbitol
T2 construct: CVX12-3A
Experimental: as §1

[4] = tested on: Candida albicans C. a.^g (Table 4); parameters: species or system yeast; tube dilution MIC in YEPD (± 1.2 M sorbitol), complete growth inhibition by turbidity; details: 48 h, YEPD + 1.2 M sorbitol
Experimental: as §1

[5] = tested on: Candida albicans C. a.^f (Table 4); parameters: species or system yeast; tube dilution MIC in YEPD (± 1.2 M sorbitol), complete growth inhibition by turbidity; details: 48 h, YEPD + 1.2 M sorbitol
Experimental: as §1

[6] = tested on: Candida albicans C. a.^g (Table 6); parameters: species or system yeast; micro tube dilution MIC in YES (± 1.2 M sorbitol), complete growth inhibition by turbidity; details: 48 h, read-out: MIC
How it was run: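 Broth microdilution in YEPD, YES or these media with 1.2 M sorbitol; early log-phase cells at 2 X 10^6 cells/ml exposed to compound (up to 200 μg/ml, 2% DMSO final) at 30°C. Turbidity read at 24 and 48 h; MIC = lowest concentration giving complete inhibition (clear medium), ≥3 independent experiments.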

SMILES	MIC [1]	MIC [2]	MIC [3]	MIC [4]	MIC [5]	MIC [6]
O=c1oc2ccccc2cc1-c1ccccc1CO [compound 15]	200 µg/mL	> 200 µg/mL	100 µg/mL	> 200 µg/mL	25 µg/mL	–
CC[C@H](C)C[C@H](C)CCCCCCCCC(=O)N[C@H]1C[C@@H](O)[C@@H](NCCN)NC(=O)[C@@H]2[C@@H](O)CCN2C(=O)[C@H]([C@H](O)CCN)NC(=O)[C@H]([C@H](O)[C@@H](O)c2ccc(O)cc2)NC(=O)[C@@H]2C[C@@H](O)CN2C(=O)[C@H]([C@@H](C)O)NC1=O [caspofungin]	–	–	–	–	–	50 µg/mL (≈ 45.7 µM)
O=c1oc2ccc3ccccc3c2cc1-c1ccccc1CO [compound 12]	50 µg/mL	100 µg/mL	50 µg/mL	200 µg/mL	100 µg/mL	–
